The values that follow come from ChEMBL document CHEMBL1909046, “DrugMatrix in vitro pharmacology data”.

A short description of experiment [1]: DRUGMATRIX: Imidazoline I2, Central radioligand binding (ligand: [3H] Idazoxan). The experiment is classed as cell membranes, Rattus norvegicus, Wistar, Cerebral cortex, Membrane. The conditions noted are these: Not Active = under 50% inhibition at 10 µM.
Experiment [2] concerns the target Vascular endothelial growth factor receptor 1 (Homo sapiens, UniProt P17948). The experiment is classed as cell-based. Particulars: huvec. Note: in other assays of this panel Not Active means under 50% inhibition at 10 µM.
The target of experiment [3] is Kappa-type opioid receptor (Homo sapiens, UniProt P41145). Nature of the experiment: DRUGMATRIX: Opiate kappa (OP2, KOP) radioligand binding (ligand: [3H] Diprenorphine). It counts as cell membranes, HEK293, Membrane. Particulars: hek293; Not Active = under 50% inhibition at 10 µM.
Experiment [4] concerns the target 5-hydroxytryptamine receptor 4 (Cavia porcellus, UniProt O70528). The experiment is classed as cell membranes, Dunkin-Hartley, Striatum, Membrane. The conditions noted are these: for Ki: read-out: Ki. For all read-outs here: in other assays of this panel Not Active means under 50% inhibition at 10 µM.
In experiment [5] the target is Matrix metalloproteinase-9 (Homo sapiens, UniProt P14780). Nature of the experiment: biochemical. It counts as cell-based.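 Note: inhibition of isolated MMP-9 enzyme activity toward a synthetic peptide substrate, from the DrugMatrix protease screening panel; in other assays of this panel Not Active means under 50% inhibition at 10 µM.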
A short description of experiment [6]: DRUGMATRIX: Glutamate, NMDA, Phencyclidine radioligand binding (ligand: [3H] TCP). The experiment is classed as cell membranes, Rattus norvegicus, Wistar, Cerebral cortex, Membrane. The conditions noted are these: Not Active = under 50% inhibition at 10 µM.
Another experiment concerns the target T1, Interstitial collagenase (Homo sapiens, UniProt P03956).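 Note: MMP-1 enzyme inhibition assay using a peptide substrate; in other assays of this panel Not Active means under 50% inhibition at 10 µM.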
T1 sequence (P03956 whole entry): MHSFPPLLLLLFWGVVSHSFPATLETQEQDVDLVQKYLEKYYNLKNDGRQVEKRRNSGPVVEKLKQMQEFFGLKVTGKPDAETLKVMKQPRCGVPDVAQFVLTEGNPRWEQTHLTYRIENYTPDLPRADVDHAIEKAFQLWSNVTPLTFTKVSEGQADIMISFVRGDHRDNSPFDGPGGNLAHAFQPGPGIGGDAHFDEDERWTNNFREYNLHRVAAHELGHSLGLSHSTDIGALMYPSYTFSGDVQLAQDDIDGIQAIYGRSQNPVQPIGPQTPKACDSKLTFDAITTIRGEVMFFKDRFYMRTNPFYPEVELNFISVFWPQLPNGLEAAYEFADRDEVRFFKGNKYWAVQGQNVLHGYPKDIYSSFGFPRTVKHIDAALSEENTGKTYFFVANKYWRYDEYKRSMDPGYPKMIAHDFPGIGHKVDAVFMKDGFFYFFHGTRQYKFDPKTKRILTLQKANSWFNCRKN
Put plainly: biochemical. The experiment is classed as tissue-based, Rheumatoid synovial fibroblasts.

Sequence of Kappa-type opioid receptor (P41145 whole entry): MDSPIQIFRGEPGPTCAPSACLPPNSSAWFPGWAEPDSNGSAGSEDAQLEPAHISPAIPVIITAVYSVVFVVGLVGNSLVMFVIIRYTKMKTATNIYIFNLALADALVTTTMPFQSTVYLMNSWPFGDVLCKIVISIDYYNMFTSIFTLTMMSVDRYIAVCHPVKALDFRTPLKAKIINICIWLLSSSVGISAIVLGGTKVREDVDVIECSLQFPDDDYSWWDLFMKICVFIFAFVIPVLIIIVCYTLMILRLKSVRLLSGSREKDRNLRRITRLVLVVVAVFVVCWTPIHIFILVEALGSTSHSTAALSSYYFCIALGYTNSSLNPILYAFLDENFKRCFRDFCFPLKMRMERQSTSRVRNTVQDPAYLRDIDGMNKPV
Sequence of 5-hydroxytryptamine receptor 4 (O70528 whole entry): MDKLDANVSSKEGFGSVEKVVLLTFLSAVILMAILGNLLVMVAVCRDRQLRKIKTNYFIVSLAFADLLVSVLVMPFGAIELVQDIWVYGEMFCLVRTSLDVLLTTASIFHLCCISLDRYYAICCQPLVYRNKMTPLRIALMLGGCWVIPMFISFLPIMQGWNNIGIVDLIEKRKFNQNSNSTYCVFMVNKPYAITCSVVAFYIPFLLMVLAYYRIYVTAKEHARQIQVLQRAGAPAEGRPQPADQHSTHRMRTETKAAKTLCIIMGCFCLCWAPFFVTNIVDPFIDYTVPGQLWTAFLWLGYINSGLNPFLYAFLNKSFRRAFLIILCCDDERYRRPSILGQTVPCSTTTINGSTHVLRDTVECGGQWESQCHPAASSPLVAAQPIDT
Sequence of Matrix metalloproteinase-9 (P14780 whole entry): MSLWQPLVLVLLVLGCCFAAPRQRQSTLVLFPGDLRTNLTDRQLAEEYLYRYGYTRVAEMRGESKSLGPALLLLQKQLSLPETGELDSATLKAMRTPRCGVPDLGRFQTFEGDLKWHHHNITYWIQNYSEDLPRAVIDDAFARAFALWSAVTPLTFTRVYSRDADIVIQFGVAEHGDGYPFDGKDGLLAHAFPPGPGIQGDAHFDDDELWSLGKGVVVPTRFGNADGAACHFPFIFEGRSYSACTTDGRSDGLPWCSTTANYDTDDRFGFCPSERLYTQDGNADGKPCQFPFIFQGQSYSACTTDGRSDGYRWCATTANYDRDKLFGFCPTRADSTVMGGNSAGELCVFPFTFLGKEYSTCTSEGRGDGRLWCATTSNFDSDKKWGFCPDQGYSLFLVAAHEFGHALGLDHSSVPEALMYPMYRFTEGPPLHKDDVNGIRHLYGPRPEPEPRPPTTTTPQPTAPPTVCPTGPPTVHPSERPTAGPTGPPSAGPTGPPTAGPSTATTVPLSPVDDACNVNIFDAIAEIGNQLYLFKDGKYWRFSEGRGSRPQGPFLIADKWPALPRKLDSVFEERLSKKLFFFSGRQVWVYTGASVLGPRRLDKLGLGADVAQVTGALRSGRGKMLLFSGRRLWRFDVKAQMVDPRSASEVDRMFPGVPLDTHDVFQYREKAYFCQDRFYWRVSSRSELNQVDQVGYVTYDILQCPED
Sequence of Vascular endothelial growth factor receptor 1 (P17948 whole entry): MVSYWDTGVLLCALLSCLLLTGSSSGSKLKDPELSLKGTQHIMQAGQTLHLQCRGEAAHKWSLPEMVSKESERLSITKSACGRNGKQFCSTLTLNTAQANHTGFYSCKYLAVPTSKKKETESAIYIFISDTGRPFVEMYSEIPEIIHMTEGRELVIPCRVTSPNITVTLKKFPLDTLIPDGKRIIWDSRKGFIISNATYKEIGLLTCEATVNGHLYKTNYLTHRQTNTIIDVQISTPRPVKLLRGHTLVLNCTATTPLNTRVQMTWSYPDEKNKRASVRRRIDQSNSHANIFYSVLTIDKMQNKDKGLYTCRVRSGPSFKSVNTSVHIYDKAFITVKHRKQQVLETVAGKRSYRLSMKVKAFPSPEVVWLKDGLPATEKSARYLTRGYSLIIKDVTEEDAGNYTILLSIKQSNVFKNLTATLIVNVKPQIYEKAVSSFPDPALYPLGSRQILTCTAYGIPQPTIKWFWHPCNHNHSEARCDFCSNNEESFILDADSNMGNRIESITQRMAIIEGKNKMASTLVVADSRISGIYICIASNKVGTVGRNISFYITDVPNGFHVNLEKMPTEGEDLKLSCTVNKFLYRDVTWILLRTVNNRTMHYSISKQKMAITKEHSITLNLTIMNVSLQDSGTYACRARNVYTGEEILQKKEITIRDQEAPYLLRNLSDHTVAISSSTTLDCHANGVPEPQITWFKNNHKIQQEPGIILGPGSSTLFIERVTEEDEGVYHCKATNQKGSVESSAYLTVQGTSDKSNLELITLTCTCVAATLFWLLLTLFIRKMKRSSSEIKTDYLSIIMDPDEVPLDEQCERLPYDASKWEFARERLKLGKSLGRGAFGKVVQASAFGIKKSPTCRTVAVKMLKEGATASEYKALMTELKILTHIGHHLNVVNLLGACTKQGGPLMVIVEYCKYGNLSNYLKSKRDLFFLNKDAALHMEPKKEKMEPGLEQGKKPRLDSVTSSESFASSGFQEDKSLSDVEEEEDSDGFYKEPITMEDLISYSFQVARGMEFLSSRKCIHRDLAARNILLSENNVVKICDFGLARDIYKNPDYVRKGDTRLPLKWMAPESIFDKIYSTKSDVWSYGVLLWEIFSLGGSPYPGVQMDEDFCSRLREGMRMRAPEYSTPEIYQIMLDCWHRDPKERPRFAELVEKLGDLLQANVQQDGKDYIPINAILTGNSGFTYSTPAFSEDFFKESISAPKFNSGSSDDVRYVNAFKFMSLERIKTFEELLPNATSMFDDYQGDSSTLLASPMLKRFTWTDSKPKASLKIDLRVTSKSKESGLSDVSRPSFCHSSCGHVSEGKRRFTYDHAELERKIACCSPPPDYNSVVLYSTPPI

Consider `CCOC(=O)C1=C(COCCN)NC(C)=C(C(=O)OC)C1c1ccccc1Cl` (stereo unspecified) [AMLODIPINE], for which the 50% inhibitory concentration (IC50) result in experiment [1], in experiment [2], in experiment [3], in experiment [4], in experiment [5] and in experiment [6] was “Not Active” in each case. Besides, on Interstitial collagenase, the IC50 (in general, the concentration needed to halve the response being measured) is recorded as “Not Active”. Moreover, the Ki entry in experiment [1] and in experiment [6] was “Not Active” throughout.
As for `CC(O)CO` (stereo unspecified) [PROPYLENE GLYCOL], the IC50 result in experiment [1], in experiment [2], in experiment [3], in experiment [4], in experiment [5] and in experiment [6] was “Not Active” in each case. Further, the IC50 entry on Interstitial collagenase was “Not Active”. For the same compound, the inhibition constant (Ki) entry in experiment [1] and in experiment [6] was “Not Active” throughout.
Regarding `CCCC1O[C@@H]2C[C@H]3[C@@H]4CCC5=CC(=O)C=C[C@]5(C)[C@H]4[C@@H](O)C[C@]3(C)[C@]2(C(=O)CO)O1` (stereo partly specified) [BUDESONIDE], the IC50 entry is “Not Active” in experiment [1]; “Not Active” in experiment [2]; “Not Active” in experiment [3]; “Not Active” in experiment [4]; 1990 nM in experiment [5] (read-out: IC50); “Not Active” in experiment [6]. At Interstitial collagenase, the IC50 result was “Not Active”. In addition, the Ki result in experiment [1] and in experiment [6] was “Not Active” each time.
For `CC1Cc2ccccc2N1NC(=O)c1ccc(Cl)c(S(N)(=O)=O)c1` (stereo unspecified) [INDAPAMIDE], the IC50 entry in experiment [1], in experiment [2], in experiment [3], in experiment [4], in experiment [5] and in experiment [6] was “Not Active” each time. Further, the half-inhibitory concentration (IC50) result against Interstitial collagenase was “Not Active”. In addition, the Ki entry in experiment [1] and in experiment [6] was “Not Active” each time.
With `CCC1(c2ccc(N)cc2)CCC(=O)NC1=O` (stereo unspecified) [AMINOGLUTETHIMIDE], the IC50 entry in experiment [1], in experiment [2], in experiment [3], in experiment [4], in experiment [5] and in experiment [6] was “Not Active” each time. Also, at Interstitial collagenase, the IC50 entry is reported as “Not Active”. In addition, the Ki entry in experiment [1] and in experiment [6] was “Not Active” throughout.
In the case of `CNCCCN1c2ccccc2CCc2ccccc21` [DESIPRAMINE], the IC50 result in experiment [1], in experiment [2], in experiment [3], in experiment [4], in experiment [5] and in experiment [6] was “Not Active” each time. For the same compound, at Interstitial collagenase, the IC50 entry is on record as “Not Active”. The Ki result in experiment [1] and in experiment [6] was “Not Active” throughout.
For `Cc1ccccc1N1C(=O)c2cc(S(N)(=O)=O)c(Cl)cc2NC1C` (stereo unspecified) [METOLAZONE], the IC50 entry in experiment [1], in experiment [2], in experiment [3], in experiment [4], in experiment [5] and in experiment [6] was “Not Active” in each case. Moreover, the IC50 entry on Interstitial collagenase is “Not Active”. The Ki entry in experiment [1] and in experiment [6] was “Not Active” throughout.
For `C1CCC(C(CC2CCCCN2)C2CCCCC2)CC1` (stereo unspecified) [PERHEXILINE], the IC50 entry in experiment [1], in experiment [2], in experiment [3], in experiment [4], in experiment [5] and in experiment [6] was “Not Active” in each case. In addition, at Interstitial collagenase, the IC50 entry was “Not Active”. The Ki result in experiment [1] and in experiment [6] was “Not Active” in each case.
Regarding `N=C(N)NCCN1CCCCCCC1` [GUANETHIDINE], the IC50 entry in experiment [1], in experiment [2], in experiment [3], in experiment [4], in experiment [5] and in experiment [6] was “Not Active” in each case. The IC50 result against Interstitial collagenase is “Not Active”. Moreover, the Ki entry in experiment [1] and in experiment [6] was “Not Active” in each case.
With `CC(C)CN(C[C@@H](O)[C@H](Cc1ccccc1)NC(=O)O[C@H]1CCOC1)S(=O)(=O)c1ccc(N)cc1`, the IC50 entry in experiment [1], in experiment [2], in experiment [3], in experiment [4], in experiment [5] and in experiment [6] was “Not Active” throughout. On Interstitial collagenase, the IC50 result is reported as “Not Active”. In addition, the Ki result in experiment [1] and in experiment [6] was “Not Active” each time.
Take `O=c1[nH]c(=O)n([C@H]2C[C@H](O)[C@@H](CO)O2)cc1I` [IDOXURIDINE]: the IC50 result in experiment [1], in experiment [2], in experiment [3], in experiment [4], in experiment [5] and in experiment [6] was “Not Active” throughout. Further, at Interstitial collagenase, the IC50 result was “Not Active”. The Ki result in experiment [1] and in experiment [6] was “Not Active” in each case.
For the compound `C[C@H](CCC(=O)O)[C@H]1CC[C@H]2[C@@H]3[C@H](O)C[C@@H]4C[C@H](O)CC[C@]4(C)[C@H]3C[C@H](O)[C@]12C` [CHOLIC ACID], the IC50 result in experiment [1], in experiment [2], in experiment [3], in experiment [4], in experiment [5] and in experiment [6] was “Not Active” throughout. Besides, the IC50 entry at Interstitial collagenase was “Not Active”. For the same compound, the Ki entry in experiment [1] and in experiment [6] was “Not Active” each time.
As for `O=C(CCCN1CC=C(n2c(=O)[nH]c3ccccc32)CC1)c1ccc(F)cc1` [DROPERIDOL], the 50% inhibitory concentration (IC50) was 2850 nM in experiment [1] (read-out: IC50); “Not Active” in experiment [2]; “Not Active” in experiment [3]; 3790 nM in experiment [4] (read-out: IC50); “Not Active” in experiment [5]; “Not Active” in experiment [6]. The IC50 result against Interstitial collagenase is on record as “Not Active”. Also, the Ki (as a rule, the equilibrium dissociation constant of an inhibitor or competing ligand from its target) in experiment [1] (read-out: Ki) is 1900 nM; in experiment [4], 632 nM; in experiment [6], “Not Active”.
For `CC(=O)O[C@@]12CO[C@@H]1C[C@H](O)[C@@]1(C)C(=O)[C@H](O)C3=C(C)[C@@H](OC(=O)[C@H](O)[C@@H](NC(=O)OC(C)(C)C)c4ccccc4)C[C@@](O)([C@@H](OC(=O)c4ccccc4)[C@H]21)C3(C)C.O.O.O` [DOCETAXEL], the half-inhibitory concentration (IC50) result in experiment [1], in experiment [2], in experiment [3], in experiment [4], in experiment [5] and in experiment [6] was “Not Active” in each case. For the same compound, the IC50 entry against Interstitial collagenase was “Not Active”. Moreover, the inhibitory constant (Ki) entry in experiment [1] and in experiment [6] was “Not Active” in each case.
As for `C[C@H]1c2cccc(O)c2C(=O)C2=C(O)[C@]3(O)C(=O)C(C(N)=O)=C(O)[C@@H](N(C)C)[C@@H]3[C@@H](O)[C@@H]21.O` [DOXYCYCLINE], the IC50 result in experiment [1], in experiment [2], in experiment [3], in experiment [4], in experiment [5] and in experiment [6] was “Not Active” throughout. Also, the IC50 entry on Interstitial collagenase is reported as “Not Active”. The Ki entry in experiment [1] and in experiment [6] was “Not Active” throughout.
On to `CC(C)[C@@]1(NC(=O)[C@@H]2C[C@@H]3c4cccc5[nH]cc(c45)C[C@H]3N(C)C2)O[C@@]2(O)[C@@H]3CCCN3C(=O)[C@H](Cc3ccccc3)N2C1=O.CS(=O)(=O)O` [DIHYDROERGOCRISTINE MESYLATE], for which the half-inhibitory concentration (IC50) in experiment [1] (read-out: IC50) is 5.43 nM; in experiment [2] it was “Not Active”; in experiment [3] it was “Not Active”; in experiment [4] (read-out: IC50) it was 4910 nM; in experiment [5], “Not Active”; in experiment [6], “Not Active”. Moreover, the IC50 entry at Interstitial collagenase was “Not Active”. Besides, the Ki in experiment [1] (read-out: Ki) is 3.62 nM; in experiment [4], 819 nM; in experiment [6] it was “Not Active”.
